Experimental data: patent US8637672B2 (Deciphera Pharmaceuticals, LLC, priority 2010, dated 2014)
pIC50: −log10 of the molar value.

Key:
VEGFR-1 (FLT1 kinase) = molecular target: T1, VEGFR-1 (FLT1 kinase) (Homo sapiens, UniProt P17948); assay: FLT1 Kinase Assay (VEGFR-1); type: biochemical; conditions: for pIC50: methods of the Biological Data section; for Fold Selectivity VEGR-1/MET: ratio VEGFR-1 IC50 / MET IC50
T1 construct: GST tagged recombinant human FLT1, amino acids 781-1338; GST; host or cells: insect cells
T1 sequence (P17948 781-1338): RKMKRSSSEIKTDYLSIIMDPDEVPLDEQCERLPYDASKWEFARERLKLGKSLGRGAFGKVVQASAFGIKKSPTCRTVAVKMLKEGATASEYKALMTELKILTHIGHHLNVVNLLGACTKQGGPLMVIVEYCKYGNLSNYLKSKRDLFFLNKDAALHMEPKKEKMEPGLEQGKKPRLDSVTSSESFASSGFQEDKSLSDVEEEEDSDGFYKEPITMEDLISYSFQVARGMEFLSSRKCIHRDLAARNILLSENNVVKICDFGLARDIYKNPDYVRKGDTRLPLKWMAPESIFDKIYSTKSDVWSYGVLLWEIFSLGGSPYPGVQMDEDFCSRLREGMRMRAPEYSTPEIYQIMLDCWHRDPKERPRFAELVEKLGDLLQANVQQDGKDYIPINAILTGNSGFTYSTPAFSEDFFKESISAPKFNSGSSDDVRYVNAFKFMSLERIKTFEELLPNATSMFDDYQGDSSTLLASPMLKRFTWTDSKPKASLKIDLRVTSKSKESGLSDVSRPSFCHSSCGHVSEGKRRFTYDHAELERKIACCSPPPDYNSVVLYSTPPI
Procedure: Activity of FLT1 kinase was determined by a radioactive filtration binding assay where incorporation of ^33P from ^33P-γ-ATP to the substrate is measured. In this assay, detection of ^33P was indicative of FLT1 phosphorylation activity which was directly proportional to the amount of phosphorylated peptide substrate poly[Glu:Tyr] (4:1). Initially, the reaction mixture contained: 400 nM FLT1, 20 mM HEPES, pH 7.5, 10 mM MgCl2, 2 mM MnCl2, 1 mM EGTA, 0.02% Brij 35, 0.02 mg/mL BSA, 0.1 mM Na3VO4, and 2 mM DTT. The reaction mixture was incubated with compound at room temperature for 30 minutes. To initiate the reaction, an equal volume of 20 μM ATP and 0.2 mg/mL peptide substrate were added and then incubated at room temperature for 2 hours. The final assay conditions were: 200 nM FLT1, 10 μM ATP, 0.1 mg/ml, substrate 20 mM HEPES, pH 7.5, 10 mM MgCl2, 1 mM EGTA, 0.02% Brij 35, 0.02 mg/mL BSA, 0.1 mM Na3VO4, 2 mM DTT, and 1% DMSO. IC50 values were calculated from a series of % Activity values determined at a range of inhibitor concentrations using software routines as implemented in the Graph Pad Prism software package.
GST tagged recombinant human FLT1, amino acids 781-1338. Expressed in insect cells.

VEGFR-2 (KDR kinase) = VEGFR-2 (KDR kinase) (Homo sapiens, UniProt P35968, DEL940-989/E990V); assay: KDR Kinase Assay (VEGFR-2); type: biochemical; conditions: for pIC50: methods of the Biological Data section; for Fold Selectivity VEGFR-2/MET: ratio VEGFR-2 IC50 / MET IC50
VEGFR-2 (KDR kinase), sequence (P35968 with tags, fused parts or gaps DEL940-989/E990V): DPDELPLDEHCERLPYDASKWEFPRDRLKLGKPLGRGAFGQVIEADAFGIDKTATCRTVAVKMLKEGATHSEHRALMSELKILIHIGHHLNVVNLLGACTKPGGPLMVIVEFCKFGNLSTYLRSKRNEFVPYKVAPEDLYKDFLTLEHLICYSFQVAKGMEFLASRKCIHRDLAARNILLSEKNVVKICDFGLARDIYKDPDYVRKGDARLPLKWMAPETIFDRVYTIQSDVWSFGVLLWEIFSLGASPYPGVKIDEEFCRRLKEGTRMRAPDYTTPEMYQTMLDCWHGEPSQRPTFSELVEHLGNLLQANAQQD
Procedure: The activity of KDR kinase was determined by following the production of ADP from the kinase reaction through coupling with the pyruvate kinase/lactate dehydrogenase system (e.g., Schindler et al. Science 2000, 289, pp. 1938-1942). In this assay, the oxidation of NADH (thus the decrease at A340 nm) was continuously monitored spectrophotometrically. The reaction mixture (100 μl) contained KDR (Seq ID No. 3, 1.5 nM to 7.1 nM, nominal concentration), polyE4Y (1 mg/mL), pyruvate kinase (3.5 units), lactate dehydrogenase (5.5 units), phosphoenolpyruvate (1 mM), and NADH (0.28 mM) in 60 mM […] buffer containing 0.13% octyl-glucoside, 13 mM MgCl2, 6.8 mM DTT, and 3.5% DMSO at pH 7.5. The reaction was initiated by adding ATP (0.2 mM, final concentration). The absorption at 340 nm was continuously monitored for 3 h at 30° C. on a Polarstar Optima plate reader (BMG) or instrument of similar capacity. The reaction rate was calculated using the 1 h to 2 h time frame. Percent inhibition was obtained by comparison of reaction rate with that of a control (i.e., with no test compound). IC50 values were calculated from a series of percent inhibition values determined at a range of inhibitor concentrations using software routines as implemented in the GraphPad Prism software package.
KDR kinase assay K2 is the same as for assay K1 except that (1) a nominal concentration of 2.1 nM of enzyme was employed (2) the reaction was pre-incubated at 30° C. for 2 h prior to initiation with ATP and (3) 1.0 mM ATP (final concentration) was used to initiate the reaction.
KDR kinase assay K3 is the same as for assay K1 except that (1) a nominal concentration of 1.1 nM of enzyme was employed, (2) the buffer components per 100 μl reaction mixture were as follows: 75 mM Tris buffer containing 0.066% octyl-glucoside, 17 mM MgCl2, and 1% DMSO at pH 7.5, (3) the final concentration of DTT was 0.66 mM, (4) the reaction was pre-incubated at 30° C. for 1 h prior to initiation with ATP, and (5) 1.0 mM ATP (final concentration) was used to initiate the reaction.

pIC50 (VEGFR-1 (FLT1 kinase)) | Fold Selectivity VEGR-1/MET (VEGFR-1 (FLT1 kinase)) | pIC50 (VEGFR-2 (KDR kinase)) | Fold Selectivity VEGFR-2/MET (VEGFR-2 (KDR kinase)) | Compound
7.10 | 19.75 | 7.28 | 13 | CC(=O)Nc1cc(Oc2cc(F)c(NC(=O)C3(C(=O)Nc4ccc(F)cc4)CC3)cc2F)ccn1 [Compound D, N-(4-(2-acetamidopyridin-4-yloxy)-2,5-difluorophenyl)-N′-(4-fluorophenyl)cyclopropane-1,1-dicarboxamide]
6.80 | 6.15 | 6.91 | 4.69 | CC(=O)Nc1cc(Oc2ccc(NC(=O)C3(C(=O)Nc4ccc(F)cc4)CC3)c(F)c2)ccn1 [Compound E, N-(4-(2-acetamidopyridin-4-yloxy)-2-fluorophenyl)-N′-(4-fluorophenyl)cyclopropane-1,1-dicarboxamide]
– | 0.45 | – | 2.13 | CN1CCN(C2CCN(C(=O)Nc3cc(Oc4cc(F)c(NC(=O)C5(C(=O)Nc6ccc(F)cc6)CC5)cc4F)ccn3)CC2)CC1 [Compound G]
– | 3.5 | – | 2.5 | O=C(Nc1cc(Oc2cc(F)c(NC(=O)C3(C(=O)Nc4ccc(F)cc4)CC3)cc2F)ccn1)N1CC(CO)C1 [Compound H]
